This note sets out measurements from patent US20040146971A1, “Novel p53 inducible protein” (priority 2001, published 2004).

Starred links: 1 amine or outer side, 2 acyl side, 3 side chain; linkers in the order of their positions; H or OH if unused. Positions of bridges follow the written chain, without caps; N, C: chain ends. Non-standard residues stand in square brackets, D forms with d. Residues, ends and D or L forms follow the SMILES beside them. Chains are numbered I, II in the order given. Actinocin(9to1) = Cc1c2oc3c(C)ccc(C(=O)[*:1])c3nc-2c(C(=O)[*:2])c(N)c1=O; NMeV = CN[C@H](C(=O)O)C(C)C; Sar = CNCC(=O)O

For test [1], the system named is NIH3T3-derived Scotin antisense and control antisense fibroblasts. The test can be described thus: Cell survival by Giemsa staining, Scotin antisense versus control antisense fibroblasts. To be noted: different doses. Type of test: cell-based, mouse. As for the experimental part: Cell survival was determinated as described in the Experimental Procedures by trypan blue 24 h after irradiation. Histogram represents the compilation of 4 independent experiments. Standard Deviation is reported as error bars. b) Clonoge assay; Scotin antisense and control antisense expressing fibroblasts were treated at concentrations indicated with the DNA-damaging agent Doxorubicin (Dx) or with the activators of ER stress Thapsigargin (Tg) or Tunicamycin (Tu) or with an activator of mitochondrial stress, FCCP. After treatment, cells were fixed in methanol and stained by Giemsa.
Cells were treated with different doses of doxorubicin for 24 h and were allowed to recover for 24 h after treatment. Cell survival was estimated by giemsa staining.
(§1) The list of conditions known to trigger the ER stress response includes treatment of cells with thapsigargin, which interferes with calcium flux across the ER membrane, or tunicamycin, an inhibitor of N-linked glycosylation, or reducing agents, or deprivation of nutrients such as glucose, amino acids, or hypoxia. […] NIH3T3, p53−/−, Scotin antisense and control antisense expressing fibroblasts were treated with different doses of thapsigargin or tunicamycin or FCCP, a protonophore inducing mitochondrial stress. Cell survival was estimated by giemsa staining (FIG. 12.3).

The test system of a further test is NIH3T3 fibroblasts. Put plainly: TUNEL staining of drug-treated NIH3T3 fibroblasts. Type of test: cell-based, mouse. The settings on record: NIH3T3, 24 h; tunicamycin 1 μg/ml, thapsigargin 150 nM. The procedure: NIH3T3 fibroblasts were treated for 24 h with 1 μg/ml of tunicamycin, fixed by paraformaldehyde and stained by TUNEL. Cells in apoptosis are stained by TUNEL (eft hand images).
For TUNEL assay, cells (3×10^5) seeded on 2-well glass chamber slide, were transfected as described. Cells were fixed for 30 min at RT in 4% paraformaldehyde in PBS, washed in PBS and permeabilised 2 min at 4° C. in 0.1% Triton X-100, 0.1% sodium citrate. The TUNEL staining was performed accordingly to the manufacturer's protocol (In Situ Cell Death Detection kit, Roche Molecular Biochemicals). The apoptotic cells presenting fragmented DNA were then labelled in green after incorporation of fluorescein.

A further test concerns p53−/− fibroblasts. Put plainly: Apoptosis of p53-/- fibroblasts after ER stress activators. In kind it is cell-based, mouse. The procedure: as §1
The test system of test [2] is Scotin. Put plainly: Western blot of Scotin protein induction in mouse embryonic fibroblasts. Type of test: cell-based. To be noted: 60 ng/ml. The procedure: (§2) FIG. 7 is a western blot which illustrates that p53 is necessary and sufficient to induce Scotin protein expression. a) Only primary mouse embryonic fibroblasts (MEF) expressing WTp53 induce Scotin after UV irradiation or Actinomycin D treatment. MEF from p53−/− and p53+/+ littermate mice were exposed to UV-C light (20 J/m2) or Actinomycin D (60 ng/ml). Proteins were extracted at time indicated after treatment and analysed by Western blot by using affinity purified rabbit polyclonal anti-mouse-Scotin antibody. As a positive control, p53 and Waf induction were determined by using CM5 rabbit polyclonal anti-mouse p53 antibody and F5 mouse monoclonal anti-Waf antibody. […] Scotin expression was analysed by Western blot by using affinity purified rabbit polyclonal anti-human Scotin antibody. […]
(§3) Cells were washed and scraped in PBS buffer and centrifuged at 2000 rpm for 2 min. […] Protein concentration of the supernatant was determined by the Bradford assay. […]
(§4) In order to further characterise Scotin protein, it was essential to identify cell lines that could induce Scotin upon DNA damage. […] Proteins were extracted after treatment and levels analysed by Western blot Waf and p53 protein levels were used as an indication of p53 activation.

The test system of test [3] is Scotin. Put plainly: Western blot of Scotin protein induction in human fibroblasts and tumour cell lines. Type of test: cell-based. As for the experimental part: as §2, §3, §4

For the compound tunicamycin, the “resistance of Scotin antisense cells compared with control antisense cells to cell death induced by the drug” value in test [1] was “more resistant”. For the same compound, the “cell death by TUNEL” value in the test with NIH3T3 fibroblasts is “die by apoptosis”. Moreover, in the test with p53−/− fibroblasts, the “apoptosis induced by the drug in p53−/− fibroblasts” value was “resistant”.
For `COc1cccc2c1C(=O)c1c(O)c3c(c(O)c1C2=O)C[C@@](O)(C(=O)CO)C[C@@H]3O[C@H]1C[C@H](N)[C@H](O)[C@H](C)O1` [doxorubicin], in test [1], the “resistance of Scotin antisense cells compared with control antisense cells to cell death induced by the drug” value is recorded as “more resistant”.
Turning to `N#CC(C#N)=NNc1ccc(OC(F)(F)F)cc1` [FCCP], the “resistance of Scotin antisense cells compared with control antisense cells to cell death induced by the drug” value in test [1] was “not”.
Consider `C/C=C(/C)C(=O)O[C@H]1C(C)=C2[C@H]([C@@H]1OC(=O)CCCCCCC)[C@@](C)(OC(C)=O)C[C@H](OC(=O)CCC)[C@@]1(O)[C@H]2OC(=O)[C@@]1(C)O` [thapsigargin], for which, in test [1], the “resistance of Scotin antisense cells compared with control antisense cells to cell death induced by the drug” value is on record as “more resistant”. The “apoptosis induced by the drug in p53−/− fibroblasts” value with p53−/− fibroblasts is reported as “resistant”.
Consider `Cc1c2oc3c(C)ccc(C(=O)N[C@@H]4C(=O)N[C@H](C(C)C)C(=O)N5CCC[C@H]5C(=O)N(C)CC(=O)N(C)[C@@H](C(C)C)C(=O)O[C@@H]4C)c3nc-2c(C(=O)N[C@@H]2C(=O)N[C@H](C(C)C)C(=O)N3CCC[C@H]3C(=O)N(C)CC(=O)N(C)[C@@H](C(C)C)C(=O)O[C@@H]2C)c(N)c1=O` [Actinomycin D] (I: T[dV]P[Sar][NMeV] / II: T[dV]P[Sar][NMeV]; ester I:1-I:C, II:1-II:C; linker I:N-II:N via Actinocin(9to1)), for which the Scotin protein level entry in the test on Scotin [2] (p53+/+ MEF) is “clearly accumulated”; with Scotin [2] (p53−/− MEF), “not”; in the test on Scotin [3] (human primary fibroblast and tumour cells expressing wt p53, 60 ng/ml) it was “clearly accumulated”; with Scotin [3] (human tumour cell lines devoid of p53 expression, 60 ng/ml), “not”.
